Data set [1] concerns MCF-7 breast cancer cells. Kind of data set: DIMSCAN cytotoxicity assay, MCF-7. The class given is cell-based. Conditions: MCF-7, fatty acid 5 micromolar. From the text:
(§1) Cell culture. The pre-T acute lymphoblastic leukemia cell lines MOLT-4 and CCRF-CEM, small cell lung cancer cell line NCI-H146, non-small cell lung cancer cell line NCI-H1792, colon cancer cell lines LoVo and HT-29, and breast cancer cell line MCF-7, were purchased from American Type Culture Collection, Manassas, Va., and grown at 20%/5% and 5%/5%, respectively. COG-LL-317 and COG-LL-332 pre-T acute lymphoblastic leukemia cell lines were obtained from the TTUHSC Cancer Center Cell Repository and grown at 5%/5%. Cell line identities were verified by short tandem repeat analysis and mycoplasma testing was performed. Cell lines were maintained in RPMI-1640 medium supplemented with 10% fetal bovine serum (FBS, Invitrogen) in humidified, 37° C. incubators. For all experiments, ALL cell lines were seeded at 2. cells/mL in RPMI-1640 medium supplemented with 15% fetal bovine serum. Solid tumor cell lines were plated at 5×cells/mL in RPMI-1640 medium supplemented with 10% fetal bovine serum.
(§2) Cytotoxicity Assay. Cytoxicity is determined using the DIMSCAN assay system (R. Proffitt et al., Cytometry 24, 204-213 (1996); T. Frgala et al., Proc. AACR, 36, 303 (1995). The system employs digital imaging microscopy to quantify viable cells, which selectively accumulate fluorescein diacetate to become brightly fluorescent. The system is capable of measuring cytotoxicity over a 4-5 log dynamic range by quenching the residual fluorescence of dead and dying cells with eosin Y and quantifying the total fluorescence of viable cells using digital thresholding. Measured fluorescence is directly proportionate to the number of viable cells. A comparison of the total fluorescence of a drug-treated cell population to the fluorescence of a similar number of untreated cells yields a survival fraction.
(§3) In brief, 5,000 to 25,000 cells/well depending on the cell line (5,000 for solid tumor, 25,000 for ALL cell lines) were replicate plated into 60 wells of a 96-well tissue culture plate in 0.1 cc media and allowed to attach or recover overnight. […]

Another data set concerns LoVo colon cancer cells. Kind of data set: DIMSCAN cytotoxicity assay, LoVo. The class given is cell-based, human. The note with it: fatty acid 5 micromolar.
Excerpt: as §1
as §2, with “cells.” for “cells. A comparison of the total fluorescence of a drug-treated cell population to the fluorescence of a similar number of untreated cells yields a survival fraction.”
(§4) In brief, 5,000 to 25,000 cells/well depending on the cell line (5,000 for solid tumor, 25,000 for ALL cell lines) were replicate plated into 60 wells of a 96-well tissue culture plate in 0.1 cc media and allowed to attach or recover overnight. Drug(s) are then added in 0.05 cc media to the final concentrations indicated. […] Total fluorescence of viable cells is then measured by digital imaging microscopy and the signal normalized to control cells. […]

The subject of data set [2] is intracellular sphingolipids, CCRF-CEM cells. As to the kind of experiment: LC/MS/MS analysis of intracellular sphingolipids, CCRF-CEM. The class given is cell-based, human. Conditions: fatty acid in addition to sphinganine plus GT-11, six hours, P<0.05. As to the method:
LC/MS/MS analysis of intracellular sphingolipids. Sphingolipids were separated using an Agilent 1200 HPLC (LC) and determined by ESI/MS/MS performed on a AB SCIEX 4000 QTRAP Hybrid Triple Quadrupole/Linear Ion Trap mass spectrometer (MS), operating in a multiple reaction monitoring positive ionization mode as described previously with moderate modifications (25). Briefly, 50 μL of a solution (1 μM) of internal sphingolipid standards (including -sphingosine, -sphinganine, -sphingosine-1-phosphate, and -ceramide) was added to each cell pellet sample. Lipids of each sample were extracted twice with 2 mL of the ethyl acetate/isopropyl alcohol/water (60:28:12; v:v) solvent system. Supernatants were transferred to glass tubes (Kimble Chase) and evaporated under air (10 PSI) at 40° C. After reconstitution in methanol (4 mL), 1 ml of each sample was separated for the determination of lipid phosphate. Remaining sample (3 mL) was dried and used for sphingolipid quantification. For ESI/MS/MS, the dried lipid sample was dissolved in mobile phase A. Samples were injected (10 μL) and separated on a Spectra C8SR, 150×3.0 mm, 3-μm particle size column using gradient-elution (mobile phase A/B, prepared as previously described).
Data acquisition, peak integration and analyte quantitation were performed using ABI/SCIEX Analyst 1.4.2 Software. Sphingolipid data were normalized to lipid phosphate as previously described (26). Briefly, samples were dried under air (10 PSI) and lipids were extracted using the method of Bligh and Dyer (27). Of importance for phosphate assay, only Kimble Chase disposable borosilicate tubes were used for minimal sample contamination. Organic phase was transferred to glass tubes and a known volume was separated to a new tube and dried at 80° C. Phosphate standards and dried samples were then heated with ashing buffer (water:10 N:70% [40:9:1]) at 160° C. overnight. Samples were then incubated with ammonium molybdate and ascorbic acid as previously described, and absorbance ([…]) was read using a SpectraMax.
CCRF-CEM cells were treated with drug/fatty acid vehicles (control), GT-11 (0.5 μM) alone, sphinganine (4 μM) alone or sphinganine (4 μM) plus GT-11 (0.5 μM) for six hours and subsequently prepared for sphingolipid analysis.
CCRF-CEM cells were treated with GT-11 (0.5 μM) alone, sphinganine (1 μM) alone or sphinganine (1 μM) plus GT-11 (0.5 μM) for six hours and prepared for quantitative analysis. DHCers were normalized to control and plotted as fold change (bar, z-axis). * indicates significance, with P<0.05. […] CCRF-CEM cells were treated with sphinganine (1 μM) plus GT-11 (0.5 μM) with and without specific solubilized fatty acids (carbon chain length (CX) and saturation (:X), Ex: C20:1=fatty acid with 20 carbons and one desaturation) for six hours and prepared for quantitative sphingolipid analysis. Dihydroceramides were normalized to control cells that received sphinganine plus GT-11 with no fatty acid and plotted as fold change (bar, z-axis). * indicates significance, with P<0.05.

Data set [3] concerns NCI-H1792 non-small cell lung cancer cells. As to the kind of experiment: DIMSCAN cytotoxicity assay, NCI-H1792. The class given is cell-based. The note with it: NCI-H1792, fatty acid 5 micromolar.
Excerpt: as §1, §2, §3

The subject of data set [4] is NCI-H146 small cell lung cancer cells. Kind of data set: DIMSCAN cytotoxicity assay, NCI-H146. The class given is cell-based, human. Conditions: NCI-H146, fatty acid 5 micromolar.
Excerpt: as §1
as §2, with “cells.” for “cells. A comparison of the total fluorescence of a drug-treated cell population to the fluorescence of a similar number of untreated cells yields a survival fraction.”
as §4

The test system of a further data set is COG-LL-317. As to the kind of experiment: DIMSCAN cytotoxicity assay, COG-LL-317. The class given is cell-based. The note with it: COG-LL-317, sphinganine 1 μM, GT-11 0.5 μM, 48 hours.
Excerpt: as §1
as §2, with “fraction. […]” for “fraction.”
(§5) The addition of C22:0-fatty acid, but not C18:0 or C22:1 fatty acids, increased cytotoxicity (FIGS. 7A-7F). […] Cytotoxicity was measured using DIMSCAN, and data was normalized to control and plotted as survival fraction (y-axis). […]

The subject of the next data set is COG-LL-332. Kind of data set: DIMSCAN cytotoxicity assay, COG-LL-332. The class given is cell-based. The note with it: COG-LL-332, sphinganine 1 μM, GT-11 0.5 μM, 48 hours.
Excerpt: as §1
as §2, with “fraction. […]” for “fraction.”
as §5

The subject of another data set is MOLT-4 ALL cells. Kind of data set: DIMSCAN cytotoxicity assay, MOLT-4. The class given is cell-based, human. The note with it: MOLT-4, sphinganine 1 μM, GT-11 0.5 μM, 48 hours.
Excerpt: as §1
as §2, with “fraction. […]” for “fraction.”
as §5

Data set [5] concerns pre-T acute lymphoblastic leukemia cell lines CCRF-CEM, MOLT-4, COG-LL-317 and COG-LL-332. As to the kind of experiment: DIMSCAN cytotoxicity assay across the four pre-T ALL cell lines. In kind it is cell-based, human. Conditions: COG-LL-317, COG-LL-332, CCRF-CEM, 4-HPR 0-9 μM, 48 hours.
Excerpt: as §1, with “For all experiments, ALL cell lines were seeded at 2. cells/mL in RPMI-1640 medium supplemented with 15% fetal bovine serum. Solid tumor cell lines were plated at 5×cells/mL in RPMI-1640 medium supplemented with 10% fetal bovine serum.” left out
as §2, with “A comparison of the total fluorescence of a drug-treated cell population to the fluorescence of a similar number of untreated cells yields a survival fraction.” left out

Take `CCCCCCCCCCCCCCCCCCCCCCCC(=O)O` [C24:0-fatty acid]: the “effect of fatty acid on fenretinide cytotoxicity” value (in data set [1]; in the data set with LoVo colon cancer cells; in data set [3]; in data set [4]) was “did not increase cytotoxicity” throughout. For the same molecule, the “increase in corresponding dihydroceramide over sphinganine plus GT-11 alone” value in data set [2] is “significant increases”.

For the molecule `CCCCCCCCCCCCCCCCCC(=O)O` [C18:0-fatty acid], the “effect of fatty acid co-treatment on cytotoxicity of sphinganine with GT-11” value with COG-LL-317, in the data set with COG-LL-332 and in the data set on MOLT-4 ALL cells was “not” each time. For the same molecule, the “effect of fatty acid on fenretinide cytotoxicity” value (in data set [1]; with LoVo colon cancer cells; in [3]; in data set [4]) was “did not increase cytotoxicity” each time. Besides, the “effect of fatty acid on fenretinide (4-HPR) cytotoxicity” value in data set [5] was “not”.

The values are drawn from patent publication US20120121691A1, “Method for Increasing the Production of a Specific ACYL-Chain Dihydroceramide(s) for Improving the Effectiveness of Cancer Treatments” (priority 2010, published 2012).
